Measured values: patent US10472395B2, “Cyclic peptide analogs and conjugates thereof” (Sirenas LLC, priority 2015, dated 2019)
Where two headings read alike, the source gives them in different places. Numbered stars: 1 amine (or outer) side, 2 acyl side, 3 side chain; on linkers, the order of the positions; unused ones are H or OH. Bridge positions count the residues as written; N and C are the ends. Square brackets hold non-standard residues; d marks the D form. Peptide text beside a SMILES is read from it. X12 = CC/C=C(\C)[C@@H](O[*:2])[C@@H](C)[C@@H](O)C/C=C(\C)C(=O)[*:1]; Hmp(2R,3S) = CC[C@H](C)[C@@H](O)C(=O)O; dNMeL = CN[C@H](CC(C)C)C(=O)O; NMeA = CN[C@@H](C)C(=O)O; Sar = CNCC(=O)O

Assays:
HeLa S3 cells = conditions: K. Suenaga et al., Bioorg. Med. Chem. Lett. 2008, 18, 3902-3905; cited from earlier work
[1] = tested on: BT-474 human mammary gland ductal carcinoma cells; assay: Inhibitory response of test compounds against BT-474 cells (Cell Titer-Glo, 72 h); assay type: cell-based
Procedure: (§1) BT-474 human mammary gland ductal carcinoma cells were seeded in a clear polystyrene 96-well microculture plate (Corning® Costar® 96-well flat bottom plate, Cat.#3997) in a total volume of 90 μL/well. After 24 hours of incubation in a humidified incubator at 37° C. with 5% CO2 and 95% air, 10 μL of 10×, serially diluted test agents in growth medium were added to each well (10 pt dose response curve, highest concentration 10 μM of test agent). After 72 hours of culture in a humidified incubator at 37° C., in an atmosphere of 5% CO2 and 95% air, the plated cells and Cell Titer-Glo® (Promega G7571) reagents were brought to room temperature to equilibrate for 30 minutes. 100 μL of Cell Titer-Glo® reagent was added to each well. The plate was shaken for two minutes and then left to equilibrate for ten minutes. The media/Cell Titer-Glo® reagent was transferred to a white polystyrene 96-well microculture plate (Corning® Costar® 96-well flat bottom plate, Cat.#3917) before reading luminescence on a Tecan GENios microplate reader.
(§2) Percent inhibition of cell growth was calculated relative to untreated control wells. The IC50 value for the test agents was determined using Prism 6.05 by curve-fitting of the data using the following four parameter-logistic equation:
(§3) [formula] where Top is the maximal % of control absorbance, Bottom is the minimal % of control absorbance at the highest agent concentration, Y is the % of control absorbance, X is the agent concentration, IC50 is the concentration of agent that inhibits cell growth by 50% compared to the control cells, and n is the slope of the curve.

HCC1954 cells = assay: Inhibitory response of test compounds against HCC1954 cells (method analogous to BT-474); assay type: cell-based
Procedure: as §1, §2, §3
Inhibitory response of test compounds against HCC1954 cells was determined using a method analogous to that used for BT-474 cells.

[2] = tested on: several cancer cell lines; conditions: Y. Nakao et al., J. Nat. Prod. 2004, 67, 1332-1340; cited from earlier work

SMILES	IC50 ([1]; Homo sapiens) [µM]	IC50 (HCC1954 cells; Homo sapiens) [µM]	other results
CC/C=C(\C)[C@H]1OC(=O)[C@H](C)N(C)C(=O)[C@H](C(C)C)NC(=O)CN(C)C(=O)[C@@H](CC(C)C)N(C)C(=O)[C@H](C(C)C)NC(=O)[C@@H]([C@@H](C)CC)OC(=O)/C(C)=C/C[C@H](O)[C@@H]1C [Aurilide, aurilide] ([Hmp(2R,3S)]V[dNMeL][Sar]V[NMeA]; linker N-C via X12)	–	–	cytotoxicity against HeLa S3 cells (HeLa S3 cells): potent cytotoxicity
C/C=C(\C)[C@H]1OC(=O)[C@@H](C)NC(=O)[C@H]([C@H](C)CC)NC(=O)CN(C)C(=O)[C@@H](Cc2ccc(Cl)cc2)N(C)C(=O)[C@H](CCCCN)NC(=O)[C@@H](CC(C)C)OC(=O)/C(C)=C/CC[C@@H]1C [Compound 118]	0.2 to 10	0.2 to 10	–
C/C=C(\C)[C@H]1OC(=O)[C@@H](C)NC(=O)[C@H]([C@H](C)CC)NC(=O)CN(C)C(=O)[C@@H](Cc2ccc(Cl)cc2)N(C)C(=O)[C@H](CCCCNC(=O)OC(C)(C)C)NC(=O)[C@@H](CC(C)C)OC(=O)/C(C)=C/CC[C@@H]1C [Compound 119]	< 0.02	< 0.02	–
C/C=C(\C)[C@H]1OC(=O)[C@@H](C)NC(=O)[C@H](C(C)CC)NC(=O)CN(C)C(=O)[C@@H](Cc2ccccc2)N(C)C(=O)[C@H](C)NC(=O)[C@@H](CC(C)C)OC(=O)/C(C)=C/C[C@H](CC(=O)NCCOCCOCCOCCO)[C@@H]1C (some centres unmarked) [Compound 122]	< 0.02	0.02 to 0.2	–
C/C=C(\C)[C@H]1OC(=O)[C@@H](C)NC(=O)[C@H](C(C)CC)NC(=O)CN(C)C(=O)[C@@H](Cc2ccccc2)N(C)C(=O)[C@H](C)NC(=O)[C@@H](CC(C)C)OC(=O)/C(C)=C/C[C@H](OC(=O)NCCO)[C@@H]1C (some centres unmarked) [Compound 123]	< 0.02	< 0.02	–
C/C=C(\C)[C@H]1OC(=O)[C@@H](C)NC(=O)[C@H](C(C)CC)NC(=O)CN(C)C(=O)[C@@H](Cc2c[nH]c3ccccc23)N(C)C(=O)[C@H](C)NC(=O)[C@@H](CC(C)C)OC(=O)/C(C)=C/C[C@H](O)[C@@H]1C (some centres unmarked) [Compound 125]	< 0.02	0.02 to 0.2	–
C/C=C(\C)[C@H]1OC(=O)[C@@H](C)NC(=O)[C@H](C(C)CC)NC(=O)CN(C)C(=O)[C@@H](Cc2ccccc2)N(C)C(=O)[C@H](C)NC(=O)[C@@H](CC(C)C)OC(=O)/C(C)=C/C[C@H](OC(=O)NCCCOCCOCCOCCCNC(=O)CCSSc2ccccn2)[C@@H]1C (some centres unmarked) [Compound L12]	–	–	IC50 [1]: 0.2 to 10 µM; IC50 (HCC1954 cells): > 10 µM
C/C=C(\C)[C@H]1OC(=O)[C@@H](C)NC(=O)[C@H](C(C)CC)NC(=O)CN(C)C(=O)[C@@H](Cc2ccccc2)N(C)C(=O)[C@H](C)NC(=O)[C@@H](CC(C)C)OC(=O)/C(C)=C/C[C@H](O)[C@@H]1C (some centres unmarked) [Kulo-2, kulo-2, reference compound]	< 0.02	< 0.02	IC50 ([1]; Homo sapiens, 72 h, Cell Titer-Glo): 0.00176 µM; cytotoxicity against several cancer cell lines [2]: potent cytotoxicity
